Measured values published in patent US6495313B2, “Silver halide color photographic light-sensitive material” (Fuji Photo Film Co., Ltd., priority 1997, dated 2002).

Assay: pKa of cyan coupler by pH titration (half-neutralization point)
Format: physicochemical
Conditions: tetrahydrofuran/water 6/4 by volume, solvent mixture of tetrahydrofuran and water 6/4 by volume
Description: The pKa of the coupler can be easily determined by obtaining a pH of a point where neutralization is performed just half on a pH titration curve measured in a solvent mixture of tetrahydrofuran and water in a ratio of 6/4 by volume.

Row | pKa | SMILES
1 | 10.3 | CCCCCCCCCCCCCCCCNC(=O)c1cc(OCCS(C)(=O)=O)c2ccccc2c1O [Sample C-4, reference compound]
2 | ≤ 8.7 | CCCCCCCCCCCCCCOc1ccccc1NC(=O)c1cc(OC(C)=O)c2ccccc2c1O [Sample C-6]
3 | 6.02 | CCCCCCCCCCCCc1ccc(S(=O)(=O)c2cc(C(=O)NCCc3ccccc3NC(C)=O)c(O)c3ccccc23)cc1 [Sample C-8]
